Among the data in patent US10526332B2, “Imidazo-pyrimidone compounds, and preparation method and application thereof” (Nanjing Gator Meditech Company, Ltd., priority 2015, dated 2020) are IC50 values, retold here.

The subject of one experiment is HCT116. Description: MTS cell proliferation test, HCT116.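 Further: absorbance at 490 nm after MTS/PMS addition, survival relative to untreated cells (100%) after blank subtraction, IC50 from the concentration–survival curve.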 To be noted: Homo sapiens, HCT-116, 72 h, read-out: HCT116 IC50 (Mean ± SD).
In a further experiment the test system is MDA-MB-231. Kind of experiment: MTS cell proliferation test, MDA-MB-231.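 Further: cells settled 24 h before compound addition, MTS absorbance at 490 nm, survival as percent of untreated cells after blank subtraction, IC50 fitted from survival versus concentration.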 To be noted: Homo sapiens, MDA-MB-231, 72 h, read-out: MDA231 IC50 (Mean ± SD). Background: Tetrazolium dyes change colour on reduction, which living cells bring about.

The structures appear in SMILES notation.

Description for HCT116: (§1) The disclosed compounds and their pharmaceutically accepted salts are assayed for their anti-cancer activities by the following method. • MTS Cell Proliferation Test 1. Materials 1.1. […] Cell Lines
(§2) Two cell lines were used, both HCT116 and MDA-MB-231 were purchased from USATCC.
(§3) MTS reagent powder was purchased from Promega. Cat #G1111; PMS from Sigma, Cat #P8625; cell culture medium RPMI-1640, Cat #10040562R; DMEM, Cat #0013CVR; 100× sodium pyruvate solution Cat #136007; 100× Penicillin Streptomycin Solution, Cat ⊇15140122; 100× Penicillin Streptomycin Solution, Cat #15140122; 0.25% Trypsin (Parenzyme), Cat #25200-072; and fetal bovine serum, Cat #16000-044 were all purchased from Life Technologies.
(§4) • Thermo incubator (Format 371); • Heat force Biosafety Cabinet (HF sage 1500); • BioTek Microplate Reader (Synergy 2). 2. […] 2.3 Procedure of MTS Methods:
(§5) Cells at logarithmic phase were harvested, then digested with 0.25% trypsin, and re-suspense in complete growth medium. 150 uL/well of HCT-116 and MDA-MB-231 were dispensed into 96 well culture plates with 2.5×10^3 cell/well. The plates were pre-incubated in a humidified CO2 incubator at 37° C., 5% CO2) for 24 hours. 50 uL of various concentration of test compounds and reference compound were added. A negative control (only cells and culture medium without compound) and blank control (only culture medium without cells) were set at the same time. The plates were incubated for 72 hr in the incubator. The MTS/PMS solution was prepared and added into 96 well plates according to the test instruction by Promega Corporation. The plates were incubated again for some time, then the absorbance at 490 nm were measured using Biotek Instruments, Inc microplate reader and the cell survival rates calculated. Cell Survival Rate(%)=(At−Ab)/(Ac−Ab)×100% where, • At=Absorbance value of test compound • Ab=Absorbance value of blank • Ac=Absorbance value of control 3. Results
Description for MDA-MB-231: as §1, §2, §3, §4, §5

As for `Cc1cccc(CN2CCC3=C(C2)C(=O)N(Cc2ccccc2C(F)(F)F)C2=NCCN23)c1` [Compound I-31, 7-(3-methylbenzyl)-4-(2-(trifluoromethyl)benzyl)-1,2,6,7,8,9-hexahydroimidazo[1,2-a]pyrido[3,4-e]pyrimidin-5(4H)-one], the half-maximal inhibitory concentration (IC50) – broadly, the midpoint of a concentration-inhibition curve – in the experiment with HCT116 worked out at 1250 ± 122 nM; with MDA-MB-231, 1650 ± 50 nM.

As for `Cc1ccccc1CN1C(=O)C2=C(CCN(Cc3ccc(N4CCN(C)CC4)cc3)C2)N2CCN=C12` [Compound I-10, 4-(2-methylbenzyl)-7-(4-(4-methylpiperazin-1-yl)benzyl)-1,2,6,7,8,9-hexahydroimidazo[1,2-a]pyrido[3,4-e]pyrimidin-5(4H)-one], the IC50 worked out at 2090 ± 16 nM in the experiment on HCT116 and 2190 ± 27 nM in the experiment with MDA-MB-231.

On to `O=C1C2=C(CCN(Cc3cccc(F)c3)C2)N2CCN=C2N1Cc1ccccc1Cl` [Compound I-51, 4-(2-chlorobenzyl)-7-(3-fluorobenzyl)-1,2,6,7,8,9-hexahydroimidazo[1,2-a]pyrido[3,4-e]pyrimidin-5(4H)-one], for which the IC50 turned out to be 700 ± 1 nM in the experiment with HCT116 and 730 ± 4 nM in the experiment with MDA-MB-231.

With `Cc1ccccc1CN1C(=O)C2=C(CCN(Cc3cccc(Br)c3)C2)N2CCN=C12` [Compound I-29, 7-(3-bromobenzyl)-4-(2-methylbenzyl)-1,2,6,7,8,9-hexahydroimidazo[1,2-a]pyrido[3,4-e]pyrimidin-5(4H)-one], the IC50 stood at 720 ± 1 nM in the experiment with HCT116 and 740 ± 2 nM in the experiment on MDA-MB-231.

Regarding `Cc1ccccc1CN1C(=O)C2=C(CCN(Cc3ccc(C(F)(F)F)cc3)C2)N2CCN=C12` [Compound I-6, 4-(2-methylbenzyl)-7-(4-(trifluoromethyl)benzyl)-1,2,6,7,8,9-hexahydroimidazo[1,2-a]pyrido[3,4-e]pyrimidin-5(4H)-one], the IC50 with HCT116 amounted to 4160 ± 1510 nM; in the experiment with MDA-MB-231 it was 4450 ± 356 nM.

For the molecule `O=C1C2=C(CCN(Cc3cccc(Cl)c3)C2)N2CCN=C2N1Cc1ccccc1C(F)(F)F` [Compound I-35, 7-(3-chlorobenzyl)-4-(2-(trifluoromethyl)benzyl)-1,2,6,7,8,9-hexahydroimidazo[1,2-a]pyrido[3,4-e]pyrimidin-5(4H)-one], the IC50 in the experiment with HCT116 amounted to 6210 ± 77 nM; in the experiment with MDA-MB-231, 4210 ± 634 nM.

In the case of `O=C1C2=C(CCN(Cc3ccccc3)C2)N2CCN=C2N1Cc1ccc(C(F)(F)F)cc1` [Compound I-39, 7-benzyl-4-(4-(trifluoromethyl)benzyl)-1,2,6,7,8,9-hexahydroimidazo[1,2-a]pyrido[3,4-e]pyrimidin-5(4H)-one], the concentration for half-maximal inhibition (IC50) with HCT116 came to 30 nM; in the experiment with MDA-MB-231 it was 50 nM.

Turning to `Cc1ccccc1CN1CCC2=C(C1)C(=O)N(Cc1ccccc1C(F)(F)F)C1=NCCN12` [Compound I-22, 7-(2-methylbenzyl)-4-(2-(trifluoromethyl)benzyl)-1,2,6,7,8,9-hexahydroimidazo[1,2-a]pyrido[3,4-e]pyrimidin-5(4H)-one], the IC50 in the experiment on HCT116 was 2030 ± 9 nM; in the experiment with MDA-MB-231 it was 2130 ± 8 nM.

With `Cc1cccc(CN2CCC3=C(C2)C(=O)N(Cc2ccccc2C)C2=NCCN23)c1` [Compound I-34, 4-(2-methylbenzyl)-7-(3-methylbenzyl)-1,2,6,7,8,9-hexahydroimidazo[1,2-a]pyrido[3,4-e]pyrimidin-5(4H)-one], the IC50 in the experiment with HCT116 is 730 ± 1 nM; in the experiment on MDA-MB-231 it was 730 ± 2 nM.

Regarding `COc1ccc(CN2CCC3=C(C2)C(=O)N(Cc2ccccc2C)C2=NCCN23)cc1` [Compound I-7, 7-(4-methoxybenzyl)-4-(2-methylbenzyl)-1,2,6,7,8,9-hexahydroimidazo[1,2-a]pyrido[3,4-e]pyrimidin-5(4H)-one], the values for the IC50 with HCT116 and in the experiment with MDA-MB-231 were 2090 ± 92 nM and 1880 ± 78 nM, respectively.

Take `Cc1cccc(CN2CCC3=C(C2)C(=O)N(Cc2ccccc2Cl)C2=NCCN23)c1` [Compound I-32, 4-(2-chlorobenzyl)-7-(3-methylbenzyl)-1,2,6,7,8,9-hexahydroimidazo[1,2-a]pyrido[3,4-e]pyrimidin-5(4H)-one]: the results for the half-inhibitory concentration (IC50) with HCT116 and in the experiment on MDA-MB-231 were 770 ± 48 nM and 740 ± 1 nM, respectively.

In the case of `O=C1C2=C(CCN(Cc3ccccc3)C2)N2CCN=C2N1Cc1ccc(Cl)cc1C(F)(F)F` [Compound I-43, 7-benzyl-4-(4-chloro-2-(trifluoromethyl)benzyl)-1,2,6,7,8,9-hexahydroimidazo[1,2-a]pyrido[3,4-e]pyrimidin-5(4H)-one], the values for the IC50 in the experiment with HCT116 and in the experiment with MDA-MB-231 were 4290 ± 210 nM and 2850 ± 770 nM, respectively.

For the molecule `O=C1C2=C(CCN(Cc3ccccc3Br)C2)N2CCN=C2N1Cc1ccccc1Cl` [Compound I-18, 7-(2-bromobenzyl)-4-(2-chlorobenzyl)-1,2,6,7,8,9-hexahydroimidazo[1,2-a]pyrido[3,4-e]pyrimidin-5(4H)-one], the 50% inhibitory concentration (IC50) with HCT116 amounted to 2150 ± 22 nM.

Turning to `O=C1C2=C(CN(Cc3ccccc3)C2)N2CCN=C2N1Cc1ccc(Cl)c(C(F)(F)F)c1` [Compound I-57, 2-benzyl-5-(4-chloro-3-(trifluoromethyl)benzyl)-2,3,7,8-tetrahydro-1H-imidazo[1,2-a]pyrrolo[3,4-e]pyrimidin-4(5H)-one], the values for the IC50 with HCT116 and with MDA-MB-231 were 2080 ± 10 nM and 2100 ± 70 nM, respectively.

On to `O=C1C2=C(CCN(Cc3ccccc3Cl)C2)N2CCN=C2N1Cc1ccccc1C(F)(F)F` [Compound I-24, 7-(2-chlorobenzyl)-4-(2-(trifluoromethyl)benzyl)-1,2,6,7,8,9-hexahydroimidazo[1,2-a]pyrido[3,4-e]pyrimidin-5(4H)-one], for which the IC50 with HCT116 is 2090 ± 41 nM; in the experiment on MDA-MB-231 it was 1990 ± 39 nM.

For `O=C1C2=C(CCN(Cc3ccccc3F)C2)N2CCN=C2N1Cc1ccccc1Cl` [Compound I-13, 4-(2-chlorobenzyl)-7-(2-fluorobenzyl)-1,2,6,7,8,9-hexahydroimidazo[1,2-a]pyrido[3,4-e]pyrimidin-5(4H)-one], the results for the IC50 in the experiment with HCT116 and with MDA-MB-231 were 1770 ± 72 nM and 1940 ± 277 nM, respectively.

On to `Cc1ccccc1CN1CCC2=C(C1)C(=O)N(Cc1ccccc1F)C1=NCCN12` [Compound I-21, 4-(2-fluorobenzyl)-7-(2-methylbenzyl)-1,2,6,7,8,9-hexahydroimidazo[1,2-a]pyrido[3,4-e]pyrimidin-5(4H)-one], for which the figures for the IC50 in the experiment on HCT116 and in the experiment on MDA-MB-231 were 2120 ± 39 nM and 2150 ± 34 nM, respectively.

For `Cc1ccccc1CN1C(=O)C2=C(CCN(Cc3cccc(C(F)(F)F)c3)C2)N2CCN=C12` [Compound I-9, 4-(2-methylbenzyl)-7-(3-(trifluoromethyl)benzyl)-1,2,6,7,8,9-hexahydroimidazo[1,2-a]pyrido[3,4-e]pyrimidin-5(4H)-one], the IC50 turned out to be 710 ± 1 nM with HCT116 and 740 nM with MDA-MB-231.

`Cc1ccccc1CN1C(=O)C2=C(CCN(Cc3ccccc3Br)C2)N2CCN=C12` [Compound I-20, 7-(2-bromobenzyl)-4-(2-methylbenzyl)-1,2,6,7,8,9-hexahydroimidazo[1,2-a]pyrido[3,4-e]pyrimidin-5(4H)-one]: the half-inhibitory concentration (IC50) came out at 27500 ± 3350 nM in the experiment on HCT116 and 27100 ± 3240 nM in the experiment with MDA-MB-231.

Consider `O=C1C2=C(CCN(Cc3cccc(Br)c3)C2)N2CCN=C2N1Cc1ccccc1C(F)(F)F` [Compound I-54, 7-(3-bromobenzyl)-4-(2-(trifluoromethyl)benzyl)-1,2,6,7,8,9-hexahydroimidazo[1,2-a]pyrido[3,4-e]pyrimidin-5(4H)-one], for which the IC50 is 21410 ± 34 nM with HCT116 and 24800 ± 2580 nM in the experiment with MDA-MB-231.

For the molecule `O=C1C2=C(CCN(Cc3cccc(Cl)c3)C2)N2CCN=C2N1Cc1ccccc1Cl` [Compound I-36, 4-(2-chlorobenzyl)-7-(3-chlorobenzyl)-1,2,6,7,8,9-hexahydroimidazo[1,2-a]pyrido[3,4-e]pyrimidin-5(4H)-one], the IC50 in the experiment with HCT116 is 720 nM; in the experiment on MDA-MB-231, 740 ± 1 nM.

Take `O=C1C2=C(CCN(Cc3ccccc3Br)C2)N2CCN=C2N1Cc1ccccc1Br` [Compound I-19, 4,7-bis(2-bromobenzyl)-1,2,6,7,8,9-hexahydroimidazo[1,2-a]pyrido[3,4-e]pyrimidin-5(4H)-one]: the IC50 was 2220 ± 7 nM in the experiment with HCT116 and 3670 ± 36 nM with MDA-MB-231.

Turning to `O=C1C2=C(CCN(Cc3ccccc3Br)C2)N2CCN=C2N1Cc1ccccc1C(F)(F)F` [Compound I-17, 7-(2-bromobenzyl)-4-(2-(trifluoromethyl)benzyl)-1,2,6,7,8,9-hexahydroimidazo[1,2-a]pyrido[3,4-e]pyrimidin-5(4H)-one], the IC50 is 2020 ± 22 nM in the experiment on HCT116 and 2140 ± 31 nM with MDA-MB-231.

Take `O=C1C2=C(CCN(Cc3ccccc3)C2)N2CCN=C2N1Cc1ccc(Cl)cc1Cl` [Compound I-41, 7-benzyl-4-(2,4-dichlorobenzyl)-1,2,6,7,8,9-hexahydroimidazo[1,2-a]pyrido[3,4-e]pyrimidin-5(4H)-one]: the IC50 was 1730 ± 250 nM in the experiment with HCT116 and 2010 ± 10 nM in the experiment on MDA-MB-231.

As to `O=C1C2=C(CCN(Cc3ccccc3F)C2)N2CCN=C2N1Cc1ccccc1C(F)(F)F` [Compound I-12, 7-(2-fluorobenzyl)-4-(2-(trifluoromethyl)benzyl)-1,2,6,7,8,9-hexahydroimidazo[1,2-a]pyrido[3,4-e]pyrimidin-5(4H)-one], the figures for the IC50 in the experiment with HCT116 and in the experiment with MDA-MB-231 were 2040 ± 29 nM and 2070 ± 1 nM, respectively.

`O=C1C2=C(CCN(Cc3cccc(Br)c3)C2)N2CCN=C2N1Cc1ccccc1Cl` [Compound I-28, 7-(3-bromobenzyl)-4-(2-chlorobenzyl)-1,2,6,7,8,9-hexahydroimidazo[1,2-a]pyrido[3,4-e]pyrimidin-5(4H)-one]: the IC50 is 2200 ± 17 nM in the experiment on HCT116 and 2220 ± 29 nM in the experiment with MDA-MB-231.

Turning to `Cc1ccccc1CN1C(=O)C2=C(CCN(Cc3ccc(N4CCOCC4)cc3)C2)N2CCN=C12` [Compound I-8, 4-(2-methylbenzyl)-7-(4-morpholinobenzyl)-1,2,6,7,8,9-hexahydroimidazo[1,2-a]pyrido[3,4-e]pyrimidin-5(4H)-one], the 50% inhibitory concentration (IC50) was determined as 1770 ± 230 nM in the experiment with HCT116 and 1820 ± 241 nM with MDA-MB-231.

Turning to `Cc1ccccc1CN1C(=O)C2=C(CCN(Cc3ccccc3F)C2)N2CCN=C12` [Compound I-15, 7-(2-fluorobenzyl)-4-(2-methylbenzyl)-1,2,6,7,8,9-hexahydroimidazo[1,2-a]pyrido[3,4-e]pyrimidin-5(4H)-one], the IC50 in the experiment on HCT116 stood at 680 ± 3 nM; in the experiment on MDA-MB-231, 730 ± 4 nM.

Regarding `O=C1C2=C(CN(Cc3ccccc3)C2)N2CCN=C2N1Cc1ccccc1Br` [Compound I-55, 2-Benzyl-5-(2-bromobenzyl)-2,3,7,8-tetrahydro-1H-imidazo[1,2-a]pyrrolo[3,4-e]pyrimidin-4(5H)-one], the values for the IC50 in the experiment on HCT116 and with MDA-MB-231 were 2140 ± 1 nM and 2190 ± 39 nM, respectively.
